Data as given in patent publication US10676485B2, “Macrocyclic MCL-1 inhibitors and methods of use” (AbbVie Inc., priority 2017, dated 2020).
Read-outs that look alike come from different tables or passages of the source.

How the values were obtained:
[1] = system: NCI-H929 human multiple myeloma tumor cell line; assay: NCI-H929 cell viability assay (CellTiter-Glo); format: cell-based; conditions: NCI-H929, read-out: H929 Viability IC50 (μM), 10% FBS, 24 hours of compound treatment
Experimental: (§1) In one exemplary set of conditions, NCI-H929 or AMO-1 (ATCC. Manassas, Va.) were plated 4.000 cells per well in 384-well tissue culture plates (Corning. Corning, N.Y.) in a total volume of 25 μL RPMI tissue culture medium supplemented with 10% fetal bovine serum (Sigma-Aldrich, St. Louis, Mo.) and treated with a 3-fold serial dilution of the compounds of interest with a Labcyte Echo from a final concentration of 10 μM to 0.0005 μM. Each concentration was tested in duplicate at least 3 independent times. A luminescent signal proportional to the number of viable cells following 24 hours of compound treatment was determined using the CellTiter-Glo® Luminescent Cell Viability Assay according to the manufacturer's recommendations (Promega Corp., Madison, Wis.). The plates were read in a Perkin Elmer Envision using a Luminescence protocol. To generate dose response curves the data is normalized to percent viability by setting the averages of the staurosporine (10 uM) and DMSO only control wells to 0% and (00)% viability respectively. The IC50 values for the compounds are generated by fitting the normalized data with Accelrys Assay Explorer 3.3 to a sigmoidal curve model using linear regression.

GST-MCL-1 = GST-MCL-1 (Homo sapiens (Human), UniProt Q07820); assay: TR-FRET MCL-1 binding assay (competition with probe F-Bak)
Experimental: For the assay, an acoustic dispenser was used to prepare dilution series from 10 mM test compounds in 100% DMSO and directly transfer 160 nL into low volume 384-well assay plates. 8 μL of a protein/probe/antibody mix was then added to each well resulting in final concentrations listed below: Test compound: 11 three-fold dilutions beginning at 25 μM
The samples were then mixed on a shaker for 1 minute and incubated for an additional 2 hours at room temperature. For each assay plate, a probe/antibody and protein/antibody/probe mixture were included as a negative and a positive control, respectively. Fluorescence was measured on the Envision (Perkin Elmer) using a 340/35 nm excitation filter and 520/525 (F-Bak) and 495/510 nm (Tb-labeled anti-his antibody) emission filters. […] The TR-FRET assay can be performed in the presence of varying concentrations of human serum (HS) or fetal bovine serum (FBS). Compounds were tested both without HS and in the presence of 10% HS.

[2] = system: AMO-1 human multiple myeloma tumor cell line; assay: AMO-1 cell viability assay (CellTiter-Glo); format: cell-based; conditions: AMO1, read-out: AMO-1 Viability IC50 (μM), 10% FBS, 24 hours of compound treatment
Experimental: as §1

[3] = read-out: MCL-1 Binding Ki (nM, 10% HS), in the presence of 10% HS
[4] = without HS, read-out: MCL-1 Binding Ki

Chain of GST-MCL-1 (Q07820 whole entry): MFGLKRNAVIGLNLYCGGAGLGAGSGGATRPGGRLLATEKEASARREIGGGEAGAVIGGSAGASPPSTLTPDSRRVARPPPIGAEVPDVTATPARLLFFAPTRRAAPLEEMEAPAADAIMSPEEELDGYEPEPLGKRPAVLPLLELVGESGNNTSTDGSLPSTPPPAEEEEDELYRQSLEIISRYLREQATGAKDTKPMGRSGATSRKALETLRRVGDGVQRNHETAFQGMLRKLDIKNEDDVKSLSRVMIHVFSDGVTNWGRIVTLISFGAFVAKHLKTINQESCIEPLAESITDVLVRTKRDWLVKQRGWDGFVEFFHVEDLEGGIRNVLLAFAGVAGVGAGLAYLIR

| SMILES | IC50 [1] [µM] | Ki (GST-MCL-1; [3]) [nM] | Ki (GST-MCL-1; [4]) [nM] | IC50 [2] [µM] |
| --- | --- | --- | --- | --- |
| Cc1c(Cl)c2c(Cl)c(C)c1-c1c(-c3ccc(F)cc3)sc3ncnc(c13)O[C@@H](C(=O)O)Cc1cc(ccc1OCc1ccnc([C@H]3CC[C@H](OC[C@H]4COCCO4)CC3)n1)OC[C@@H](CN1CCN(C)CC1)O2 [Example 9, (7R,16R)-19,23-dichloro-10-({2-[(1R,4r)-4-{[(2R)-1,4-dioxan-2-yl]methoxy}cyclohexyl]pyrimidin-4-yl}methoxy)-1-(4-fluorophenyl)-20,22-dimethyl-16-[(4-methylpiperazin-1-yl)methyl]-7,8,15,16-tetrahydro-18,21-etheno-13,9-(metheno)-6,14,17-trioxa-2-thia-3,5-diazacyclononadeca[1,2,3-cd]indene-7-carboxylic acid] | 0.000245 | 0.1 | 0.005 | 0.000165 |
| Cc1c(Cl)c2c(Cl)c(C)c1-c1c(-c3ccc(F)cc3)sc3ncnc(c13)O[C@@H](C(=O)O)Cc1cc(ccc1OCc1ccnc(C3COCCOC3)n1)OC[C@@H](CN1CCN(C)CC1)O2 [Example 30, (7R,16R)-19,23-dichloro-10-{[2-(1,4-dioxepan-6-yl)pyrimidin-4-yl]methoxy}-1-(4-fluorophenyl)-20,22-dimethyl-16-[(4-methylpiperazin-1-yl)methyl]-7,8,15,16-tetrahydro-18,21-etheno-13,9-(metheno)-6,14,17-trioxa-2-thia-3,5-diazacyclononadeca[1,2,3-cd]indene-7-carboxylic acid] | 0.000974 | 0.16 | 0.015 | 0.000285 |
| Cc1c(Cl)c2c(Cl)c(C)c1-c1c(-c3ccc(F)cc3)sc3ncnc(c13)O[C@@H](C(=O)O)Cc1cc(ccc1OCc1ccnc([C@H]3CC[C@H](OC[C@@H]4COCCO4)CC3)n1)OC[C@@H](CN1CCN(C)CC1)O2 [Example 44, (7R,16R)-19,23-dichloro-10-({2-[(1S,4r)-4-{[(2S)-1,4-dioxan-2-yl]methoxy}cyclohexyl]pyrimidin-4-yl}methoxy)-1-(4-fluorophenyl)-20,22-dimethyl-16-[(4-methylpiperazin-1-yl)methyl]-7,8,15,16-tetrahydro-18,21-etheno-13,9-(metheno)-6,14,17-trioxa-2-thia-3,5-diazacyclononadeca[1,2,3-cd]indene-7-carboxylic acid] | 0.000286 | 0.16 | 0.02 | 0.000268 |
| Cc1c(Cl)c2c(Cl)c(C)c1-c1c(-c3ccc(F)cc3)sc3ncnc(c13)O[C@@H](C(=O)O)Cc1cc(ccc1OCc1ccnc(N3CC(COC[C@H]4COCCO4)C3)n1)OC[C@@H](CN1CCN(C)CC1)O2 [Example 12, (7R,16R)-19,23-dichloro-10-({2-[3-({[(2S)-1,4-dioxan-2-yl]methoxy}methyl)azetidin-1-yl]pyrimidin-4-yl}methoxy)-1-(4-fluorophenyl)-20,22-dimethyl-16-[(4-methylpiperazin-1-yl)methyl]-7,8,15,16-tetrahydro-18,21-etheno-9,13-(metheno)-6,14,17-trioxa-2-thia-3,5-diazacyclononadeca[1,2,3-cd]indene-7-carboxylic acid] | 0.00208 | 0.61 | 0.076 | 0.00104 |
| Cc1c(Cl)c2c(Cl)c(C)c1-c1c(-c3ccc(F)cc3)sc3ncnc(c13)O[C@@H](C(=O)O)Cc1cc(ccc1OCc1ccnc([C@H]3CC[C@H](COC[C@H]4COCCO4)CC3)n1)OC[C@@H](CN1CCN(C)CC1)O2 [Example 51, (7R,16R)-19,23-dichloro-10-({2-[(1R,4r)-4-({[(2S)-1,4-dioxan-2-yl]methoxy}methyl)cyclohexyl]pyrimidin-4-yl}methoxy)-1-(4-fluorophenyl)-20,22-dimethyl-16-[(4-methylpiperazin-1-yl)methyl]-7,8,15,16-tetrahydro-18,21-etheno-13,9-(metheno)-6,14,17-trioxa-2-thia-3,5-diazacyclononadeca[1,2,3-cd]indene-7-carboxylic acid] | 0.000299 | 0.131 | < 0.01 | 0.000267 |
| Cc1c(Cl)c2c(Cl)c(C)c1-c1c(-c3ccc(F)cc3)sc3ncnc(c13)O[C@@H](C(=O)O)Cc1cc(ccc1OCc1ccnc(-c3ccc(OC[C@H]4COCCO4)cc3)n1)OC[C@@H](CN1CCN(C)CC1)O2 [Example 2, (7R,16R)-19,23-dichloro-10-{[2-(4-{[(2R)-1,4-dioxan-2-yl]methoxy}phenyl)pyrimidin-4-yl]methoxy}-1-(4-fluorophenyl)-20,22-dimethyl-16-[(4-methylpiperazin-1-yl)methyl]-7,8,15,16-tetrahydro-18,21-etheno-13,9-(metheno)-6,14,17-trioxa-2-thia-3,5-diazacyclononadeca[1,2,3-cd]indene-7-carboxylic acid] | 0.0033 | 1.04 | 0.052 | 0.00019 |
| Cc1c(Cl)c2c(Cl)c(C)c1-c1c(C3=CCCC3)sc3ncnc(c13)O[C@@H](C(=O)O)Cc1cc(ccc1OCc1ccnc([C@H]3CC[C@@](F)(COC[C@@H]4COCCO4)CC3)n1)OC[C@@H](CN1CCN(C)CC1)O2 [Example 37, (7R,16R)-19,23-dichloro-1-(cyclopent-1-en-1-yl)-10-({2-[(1S,4r)-4-({[(2S)-1,4-dioxan-2-yl]methoxy}methyl)-4-fluorocyclohexyl]pyrimidin-4-yl}methoxy)-20,22-dimethyl-16-[(4-methylpiperazin-1-yl)methyl]-7,8,15,16-tetrahydro-18,21-etheno-13,9-(metheno)-6,14,17-trioxa-2-thia-3,5-diazacyclononadeca[1,2,3-cd]indene-7-carboxylic acid] | 0.00053 | 0.63 | 0.051 | 0.000187 |
| Cc1c(Cl)c2c(Cl)c(C)c1-c1c(-c3ccc(F)cc3)sc3ncnc(c13)O[C@@H](C(=O)O)Cc1cc(ccc1OCc1ccnc(C3=CC[C@](F)(COC[C@H]4COCCO4)CC3)n1)OC[C@@H](CN1CCN(C)CC1)O2 [Example 40, (7R,16R)-19,23-dichloro-10-({2-[(4S)-4-({[(2R)-1,4-dioxan-2-yl]methoxy}methyl)-4-fluorocyclohex-1-en-1-yl]pyrimidin-4-yl}methoxy)-1-(4-fluorophenyl)-20,22-dimethyl-16-[(4-methylpiperazin-1-yl)methyl]-7,8,15,16-tetrahydro-18,21-etheno-13,9-(metheno)-6,14,17-trioxa-2-thia-3,5-diazacyclononadeca[1,2,3-cd]indene-7-carboxylic acid] | 0.000271 | 0.63 | 0.014 | 0.000352 |
| Cc1c(Cl)c2c(Cl)c(C)c1-c1c(-c3ccc(F)cc3)sc3ncnc(c13)O[C@@H](C(=O)O)Cc1cc(ccc1OCc1ccnc([C@H]3CC[C@H](COC[C@@H]4COCCO4)CC3)n1)OC[C@@H](CN1CCN(C)CC1)O2 [Example 49, (7R,16R)-19,23-dichloro-10-({2-[(1S,4r)-4-({[(2R)-1,4-dioxan-2-yl]methoxy}methyl)cyclohexyl]pyrimidin-4-yl}methoxy)-1-(4-fluorophenyl)-20,22-dimethyl-16-[(4-methylpiperazin-1-yl)methyl]-7,8,15,16-tetrahydro-18,21-etheno-13,9-(metheno)-6,14,17-trioxa-2-thia-3,5-diazacyclononadeca[1,2,3-cd]indene-7-carboxylic acid] | 0.000314 | 0.128 | < 0.01 | 0.000172 |
| Cc1c(Cl)c2c(Cl)c(C)c1-c1c(-c3ccc(F)cc3)sc3ncnc(c13)O[C@@H](C(=O)O)Cc1cc(ccc1OCc1ccnc([C@H]3CC[C@H](OCC4COCO4)CC3)n1)OC[C@@H](CN1CCN(C)CC1)O2 (stereo partly drawn) [Example 14, (7R,16R)-19,23-dichloro-10-[(2-{(1r,4r)-4-[(1,3-dioxolan-4-yl)methoxy]cyclohexyl}pyrimidin-4-yl)methoxy]-1-(4-fluorophenyl)-20,22-dimethyl-16-[(4-methylpiperazin-1-yl)methyl]-7,8,15,16-tetrahydro-18,21-etheno-13,9-(metheno)-6,14,17-trioxa-2-thia-3,5-diazacyclononadeca[1,2,3-cd]indene-7-carboxylic acid] | 0.000236 | 0.09 | 0.006 | 0.000114 |
| COc1ccccc1-c1nccc(COc2ccc3cc2C[C@H](C(=O)O)Oc2ncnc4sc(C[C@@H]5COCCO5)c(c24)-c2c(C)c(Cl)c(c(Cl)c2C)O[C@H](CN2CCN(C)CC2)CO3)n1 [Example 18, (7R,16R)-19,23-dichloro-1-{[(2R)-1,4-dioxan-2-yl]methyl}-10-{[2-(2-methoxyphenyl)pyrimidin-4-yl]methoxy}-20,22-dimethyl-16-[(4-methylpiperazin-1-yl)methyl]-7,8,15,16-tetrahydro-18,21-etheno-13,9-(metheno)-6,14,17-trioxa-2-thia-3,5-diazacyclononadeca[1,2,3-cd]indene-7-carboxylic acid] | 0.00995 | 0.24 | 0.111 | 0.00612 |
